# Assay results: patent publication US9611221B2, “Histone demethylase inhibitors” (CELGENE QUANTICEL RESEARCH, INC., priority 2012, dated 2017)
# Target: JMJD2C (Homo sapiens (Human), UniProt Q9H3R0)
# Assay: JMJD2C in vitro enzyme inhibition assay (TR-FRET)
# Format: biochemical
# Details: 0.3 nM JMJD2C, 300 nM H3K9me3-biotin peptide, 2 μM alpha-ketoglutaric acid
# Description: This assay determines the ability of a test compound to inhibit Jarid1A, Jarid1B, and JMJD2C demethylase activity. Baculovirus expressed Jarid1A (GenBank Accession #NM_001042603, AA1-1090) was purchased from BPS Bioscience (Cat#50110). Baculovirus expressed Jarid1B (GenBank Accession #NM_006618, AA 2-751) was purchased from BPS Bioscience (Cat #50121) or custom made by MolecularThroughput. Baculovirus expressed JMJD2C (GenBank Accession #BC143571, AA 2-372) was purchased from BPS Bioscience (Cat#50105).
# The ability of test compounds to inhibit the activity of JMJD2C was determined in 384-well plate format under the following reaction conditions: 0.3 nM JMJD2C, 300 nM H3K9me3-biotin labeled peptide (Anaspec cat #64360), 2 μM alpha-ketoglutaric acid in assay buffer of 50 mM HEPES, pH7.3, 0.005% Brij35, 0.5 mM TCEP, 0.2 mg/ml BSA, 50 μM sodium L-ascorbate, and 2 μM ammonium iron(II) sulfate. Reaction product was determined quantitatively by TR-FRET after the addition of detection reagent Phycolink Streptavidin-allophycocyanin (Prozyme) and Europium-anti-di-methylated histone H3 lysine 9 (H3K9me2) antibody (PerkinElmer) in the presence of 5 mM EDTA in LANCE detection buffer (PerkinElmer) at a final concentration of 50 nM and 1 nM, respectively.
# The reaction mixture was incubated at room temperature for 30 minutes, and terminated by the addition of 6 μl of 5 mM EDTA in LANCE detection buffer containing 100 nM Phycolink Streptavidin-allophycocyanin and 2 nM Europium-anti-H3K9me2 antibody. Plates were read by EnVisionMultilabel Reader in TR-FRET mode (excitation at 320 nm, emission at 615 nm and 665 nm) after 1 hour incubation at room temperature. A ratio was calculated (665/615) for each well and fitted to determine inhibition constant (IC50).
# JMJD2C, sequence (Q9H3R0 2-372): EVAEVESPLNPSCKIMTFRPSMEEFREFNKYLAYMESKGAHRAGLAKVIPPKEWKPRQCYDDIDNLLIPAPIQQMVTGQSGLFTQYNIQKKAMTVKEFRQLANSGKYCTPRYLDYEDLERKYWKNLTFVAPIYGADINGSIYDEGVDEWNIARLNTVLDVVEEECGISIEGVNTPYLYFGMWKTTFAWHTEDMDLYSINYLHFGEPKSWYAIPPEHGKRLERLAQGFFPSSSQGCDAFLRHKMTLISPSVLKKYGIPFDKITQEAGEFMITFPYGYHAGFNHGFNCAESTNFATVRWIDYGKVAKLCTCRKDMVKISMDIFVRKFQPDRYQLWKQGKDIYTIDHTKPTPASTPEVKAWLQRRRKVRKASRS
row,IC50 [nM],Compound
1,1000 to 10000,"O=C(O)c1ccncc1NCC1CCCc2c(Oc3ccccc3)cccc21 (stereo not shown) [Example 77, 3-{[(5-phenoxy-1,2,3,4-tetrahydronaphthalen-1-yl)methyl]amino}pyridine-4-carboxylic acid]"
2,≤ 100,"O=C(O)c1ccncc1NC[C@H]1CCCc2c(F)cccc21 [Example 56, 3-({[(1S)-5-fluoro-1,2,3,4-tetrahydronaphthalen-1-yl]methyl}amino)pyridine-4-carboxylic acid]"
3,100 to 1000,"3-{[(6-chloro-1-hydroxy-1,2,3,4- tetrahydronaphthalen-1- yl)methyl]amino}pyridine-4-carboxylic acid [Example 67]"
4,1000 to 10000,"O=C(O)c1ccncc1NC[C@@H]1CCOc2cc(-c3ccccc3F)ccc21 [Example 96, 3-({[(4R)-7-(2-fluorophenyl)-3,4-dihydro-2H-chromen-4-yl]methyl}amino)pyridine-4-carboxylic acid]"
5,100 to 1000,"O=C(O)c1ccncc1NCC1CCCc2cc(Oc3cccc(C(F)(F)F)n3)ccc21 (stereo not shown) [Example 104, 3-{[(6-{[6-(trifluoromethyl)pyridin-2-yl]oxy}-1,2,3,4-tetrahydronaphthalen-1-yl)methyl]amino}pyridine-4-carboxylic acid]"
6,100 to 1000,"O=C(O)c1ccncc1NC[C@H]1CCCc2cc(OCCC3CC3)ccc21 [Example 97, 3-({[(1S)-6-(2-cyclopropylethoxy)-1,2,3,4-tetrahydronaphthalen-1-yl]methyl}amino)pyridine-4-carboxylic acid]"
7,100 to 1000,"O=C(O)c1ccncc1NCC1CCOc2cc(F)ccc21 (stereo not shown) [Example 70, 3-{[(7-fluoro-3,4-dihydro-2H-chromen-4-yl)methyl]amino}pyridine-4-carboxylic acid]"
8,100 to 1000,"O=C(O)c1ccncc1NCC1CCCc2cc(OCCc3ccccc3)ccc21 (stereo not shown) [Example 89, 3-({[6-(2-phenylethoxy)-1,2,3,4-tetrahydronaphthalen-1-yl]methyl}amino)pyridin-4-carboxylic acid]"
9,100 to 1000,"O=C(O)c1ccncc1NCC1CCOc2cc(Cl)ccc21 (stereo not shown) [Example 66, 3-{[(7-chloro-3,4-diydro-2H-chromen-4-y)methyl]amino}pyridine-4-carboxylic acid]"
10,100 to 1000,"O=C(O)c1ccncc1NCC1CCCc2ccc(-c3ccccc3)cc21 (stereo not shown) [Example 73, 3-{[(7-phenyl-1,2,3,4-tetrahydronaphthalen-1-yl)methyl]amino}pyridine-4-carboxylic acid]"
11,100 to 1000,"O=C(O)c1ccncc1NCC1CCSc2ccccc21 (stereo not shown) [Example 78, 3-[(3,4-dihydro-2H-thiochromen-4-ylmethyl)amino]pyridine-4-carboxylic acid]"
12,100 to 1000,"CC(C)Oc1ccc(CNc2cnccc2C(=O)O)cc1 [Example 11, 3-{[4-(propan-2-yloxy)benzyl]amino}pyridine-4-carboxylic acid]"
13,100 to 1000,"O=C(O)c1ccncc1NC[C@H]1CCOc2cc(-c3ccc(F)cc3)ccc21 [Example 93, 3-({[(4S)-7-(4-fluorophenyl)-3,4-dihydro-2H-chromen-4-yl]methyl}amino)pyridine-4-carboxylic acid]"
14,1000 to 10000,O=C(O)c1ccncc1NCC1CCCc2c(OCC3CC3)cccc21 (stereo not shown) [Example 76]
15,100 to 1000,"O=C(O)c1ccncc1NCC1CCCc2c(F)cccc21 (stereo not shown) [Example 54, 3-{[(5-fluoro-1,2,3,4-tetrahydronaphthalen-1-yl)methyl]amino}pyridine-4-carboxylic acid]"
16,100 to 1000,O=C(O)c1ccncc1NCC1CCCc2cc(OCC3CC3)ccc21 (stereo not shown) [Example 81]
17,1000 to 10000,"O=C(O)c1ccncc1NC[C@@H]1CCOc2cc(-c3cccc(F)c3)ccc21 [Example 86, 3-({[(4R)-7-(3-fluorophenyl)-3,4-dihydro-2H-chromen-4-yl]methyl}amino)pyridine-4-carboxylic acid]"

# The remaining lines, values behind:
row,Compound,IC50 [nM]
1,"O=C(O)c1ccncc1NCC1CCOc2cc(CCC3CC3)ccc21 (stereo not shown) [Example 91, 3-({[7-(2-cyclopropylethyl)-3,4-dihydro-2H-chromen-4-yl]methyl}amino)pyridine-4-carboxylic acid]",100 to 1000
2,"COc1cccc2c1CCCC2CNc1cnccc1C(=O)O (stereo not shown) [Example 74, 3-{[(5-methoxy-1,2,3,4-tetrahydronaphthalen-1-yl)methyl]amino}pyridine-4-carboxylic acid]",100 to 1000
3,"O=C(O)c1ccncc1NC[C@H]1CCCc2cc(OCCC(F)(F)F)ccc21 [Example 99, 3-({[(1S)-6-(3,3,3-trifluoropropoxy)-1,2,3,4-tetrahydronaphthalen-1-yl]methyl}amino)pyridine-4-carboxylic acid]",100 to 1000
4,"O=C(O)c1ccncc1NCC1CCOc2cc(-c3ccccc3)ccc21 (stereo not shown) [Example 69, 3-{[(7-phenyl-3,4-dihydro-2H-chromen-4-yl)methyl]amino}pyridine-4-carboxylic acid]",100 to 1000
5,"O=C(O)c1ccncc1NC[C@@H]1CCCc2cc(OCCC3CC3)ccc21 [Example 98, 3-({[(1R)-6-(2-cyclopropylethoxy)-1,2,3,4-tetrahydronaphthalen-1-yl]methyl}amino)pyridine-4-carboxylic acid]",1000 to 10000
6,"3-{[(7-fluoro-3,4-dihydro-2H-chromen-4- yl)methyl]amino}pyridine-4-carboxylic acid [Example 65]",≤ 100
7,"O=C(O)c1ccnnc1NCC1CCCc2cc(OCCC(F)(F)F)ccc21 (stereo not shown) [Example 101, 3-({[6-(3,3,3-trifluoropropoxy)-1,2,3,4-tetrahydronaphthalen-1-yl]methyl}amino)pyridazine-4-carboxylic acid]",100 to 1000
8,"COc1ccc2c(c1)CCC[C@@H]2CNc1cnccc1C(=O)O [Example 61, 3-({[(1S)-6-methoxy-1,2,3,4-tetrahydronaphthalen-1-yl]methyl}amino)pyridine-4-carboxylic acid]",100 to 1000
9,"O=C(O)c1ccncc1NCC1=CCCc2ccc(F)cc21 [Example 51, 3-{[(7-fluoro-3,4-dihydronaphthalen-1-yl)methyl]amino}pyridine-4-carboxylic acid]",100 to 1000
10,"Cc1cc(C)c2c(c1)C(CNc1cnccc1C(=O)O)CCC2 (stereo not shown) [Example 52, 3-{[(5,7-dimethyl-1,2,3,4-tetrahydronaphthalen-1-yl)methyl]amino}pyridine-4-carboxylic acid]",1000 to 10000
11,"O=C(O)c1ccncc1NC[C@H]1CCOc2cc(-c3ccccc3)ccc21 [Example 83, 3-({[(4S)-7-phenyl-3,4-dihydro-2H-chromen-4-yl]methyl}amino)pyridine-4-carboxylic acid]",100 to 1000
12,"O=C(O)c1ccncc1NC[C@@H]1CCCc2cc(OCCC(F)(F)F)ccc21 [Example 100, 3-({[(1R)-6-(3,3,3-trifluoropropoxy)-1,2,3,4-tetrahydronaphthalen-1-yl]methyl}amino)pyridine-4-carboxylic acid]",100 to 1000
13,"O=C(O)c1ccncc1NC[C@H]1CCOc2cc(C3CC3)ccc21 [Example 87, 3-({[(4S)-7-cyclopropyl-3,4-dihydro-2H-chromen-4-yl]methyl}amino)pyridine-4-carboxylic acid]",≤ 100
14,"Cc1ccc2c(c1C)CCCC2CNc1cnccc1C(=O)O (stereo not shown) [Example 103, 3-{[(5,6-dimethyl-1,2,3,4-tetrahydronaphthalen-1-yl)methyl]amino}pyridine-4-carboxylic acid]",100 to 1000
15,"COc1ccc2c(c1)CCC[C@H]2CNc1cnccc1C(=O)O [Example 62, 3-({[(1R)-6-methoxy-1,2,3,4-tetrahydronaphthalen-1-yl]methyl}amino)pyridine-4-carboxylic acid]",100 to 1000
16,"COc1ccc2c(c1F)CCCC2CNc1cnccc1C(=O)O (stereo not shown) [Example 102, 3-{[(5-fluoro-6-methoxy-1,2,3,4-tetrahydronaphthalen-1-yl)methyl]amino}pyridine-4-carboxylic acid]",100 to 1000
17,"O=C(O)c1ccncc1NC[C@@H]1CCOc2cc(C3CC3)ccc21 [Example 88, 3-({[(4R)-7-cyclopropyl-3,4-dihydro-2H-chromen-4-yl]methyl}amino)pyridine-4-carboxylic acid]",100 to 1000
18,"O=C(O)c1ccncc1NCC1CCCc2ccc(Cl)cc21 (stereo not shown) [Example 72, 3-{[(7-chloro-1,2,3,4-tetrahydronaphthalen-1-yl)methyl]amino}pyridine-4-carboxylic acid]",100 to 1000
19,"O=C(O)c1ccncc1NCC1CCCc2cc(OC(F)(F)F)ccc21 (stereo not shown) [Example 92, 3-({[6-(trifluoromethoxy)-1,2,3,4-tetrahydronaphthalen-1-yl]methyl}amino)pyridine-4-carboxylic acid]",1000 to 10000
20,"O=C(O)c1ccncc1NCC1CCCc2cc(OCC(F)(F)F)ccc21 (stereo not shown) [Example 90, 3-({[6-(2,2,2-trifluoroethoxy)-1,2,3,4-tetrahydronaphthalen-1-yl]methyl}amino)pyridine-4-carboxylic acid]",100 to 1000
